Key:
Test in all cases: five-probe cocktail in human liver microsomes, LC-MS/MS of metabolites
Assay type in all cases: biochemical
[1] = biological target: T1, CYP2C9 (Homo sapiens, UniProt P11712); conditions: tolbutamide 4-hydroxylation, printed 100 mM tolbutamide (unit as printed), 1 mM NADPH, 3.3 mM MgCl2, pH 7.4, 37°C, 30 min; b29 prints 68.91; Table 2 prints vinpocetine in μg/mL, methods in μM
T1 construct: native enzyme in pooled human liver microsomes (BD Gentest); activity read by tolbutamide 4-hydroxylation
Excerpt: five-probe cocktail in human liver microsomes, LC-MS/MS of metabolites on CYP2C9

[2] = biological target: T2, CYP2D6 (Homo sapiens, UniProt P10635); conditions: dextrorphan formation, printed 5 mM dextromethorphan (unit as printed), 1 mM NADPH, pH 7.4, 37°C; unreliable (extrapolated above top concentration 100 μM; text says > 100 μM)
T2 construct: native enzyme in pooled human liver microsomes (BD Gentest); activity read by dextrorphan formation from dextromethorphan
Excerpt: five-probe cocktail in human liver microsomes, LC-MS/MS of metabolites on CYP2D6

[3] = biological target: T3, CYP2E1 (Homo sapiens, UniProt P05181); conditions: chlorzoxazone 6-hydroxylation, printed 50 mM chlorzoxazone (unit as printed), 1 mM NADPH, pH 7.4, 37°C; unreliable (extrapolated above top concentration 100 μM; text says > 100 μM)
T3 construct: native enzyme in pooled human liver microsomes (BD Gentest); activity read by chlorzoxazone 6-hydroxylation
Excerpt: five-probe cocktail in human liver microsomes, LC-MS/MS of metabolites on CYP2E1

[4] = biological target: T4, CYP2C19 (Homo sapiens, UniProt P33261); conditions: omeprazole 5-hydroxylation, printed 50 mM omeprazole (unit as printed), 1 mM NADPH, pH 7.4, 37°C; unreliable (extrapolated above top concentration 100 μM; text says > 100 μM)
T4 construct: native enzyme in pooled human liver microsomes (BD Gentest); activity read by omeprazole 5-hydroxylation
Excerpt: five-probe cocktail in human liver microsomes, LC-MS/MS of metabolites on CYP2C19

[5] = biological target: T5, CYP3A4 (Homo sapiens, UniProt P08684); conditions: testosterone 6β-hydroxylation, printed 50 mM testosterone (unit as printed), otherwise as row above; unreliable (extrapolated above top concentration 100 μM; text says > 100 μM)
T5 construct: native enzyme in pooled human liver microsomes (BD Gentest); activity read by testosterone 6beta-hydroxylation (CYP3A5 may contribute)
Excerpt: five-probe cocktail in human liver microsomes, LC-MS/MS of metabolites on CYP3A4

T2 sequence (P10635 whole entry): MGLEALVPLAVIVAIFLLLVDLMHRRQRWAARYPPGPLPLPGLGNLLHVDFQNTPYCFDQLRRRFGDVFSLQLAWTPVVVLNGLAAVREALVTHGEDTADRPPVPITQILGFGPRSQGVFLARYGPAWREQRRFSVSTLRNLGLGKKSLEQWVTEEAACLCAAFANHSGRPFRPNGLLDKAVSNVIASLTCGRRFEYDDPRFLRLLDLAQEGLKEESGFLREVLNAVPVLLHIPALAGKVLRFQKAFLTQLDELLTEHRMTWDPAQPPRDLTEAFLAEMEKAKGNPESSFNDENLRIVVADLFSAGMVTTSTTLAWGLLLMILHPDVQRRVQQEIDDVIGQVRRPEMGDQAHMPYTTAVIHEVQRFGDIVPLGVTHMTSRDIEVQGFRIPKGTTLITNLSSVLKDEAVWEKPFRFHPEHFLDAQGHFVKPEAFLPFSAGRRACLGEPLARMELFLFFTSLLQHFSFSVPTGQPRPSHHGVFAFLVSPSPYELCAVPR
T3 sequence (P05181 whole entry): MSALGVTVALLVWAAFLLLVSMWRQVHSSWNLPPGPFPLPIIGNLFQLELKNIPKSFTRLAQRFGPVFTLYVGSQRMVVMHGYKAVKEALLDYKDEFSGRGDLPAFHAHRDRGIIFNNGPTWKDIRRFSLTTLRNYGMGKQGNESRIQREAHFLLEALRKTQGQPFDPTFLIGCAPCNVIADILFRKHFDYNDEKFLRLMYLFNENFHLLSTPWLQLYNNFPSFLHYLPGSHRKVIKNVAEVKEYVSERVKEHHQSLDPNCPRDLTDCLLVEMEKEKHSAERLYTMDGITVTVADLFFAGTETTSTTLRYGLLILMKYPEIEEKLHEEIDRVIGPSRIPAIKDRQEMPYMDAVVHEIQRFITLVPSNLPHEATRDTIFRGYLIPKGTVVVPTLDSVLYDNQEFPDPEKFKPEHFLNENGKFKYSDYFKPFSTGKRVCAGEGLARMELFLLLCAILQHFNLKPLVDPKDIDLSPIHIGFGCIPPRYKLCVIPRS
T5 sequence (P08684 2-503): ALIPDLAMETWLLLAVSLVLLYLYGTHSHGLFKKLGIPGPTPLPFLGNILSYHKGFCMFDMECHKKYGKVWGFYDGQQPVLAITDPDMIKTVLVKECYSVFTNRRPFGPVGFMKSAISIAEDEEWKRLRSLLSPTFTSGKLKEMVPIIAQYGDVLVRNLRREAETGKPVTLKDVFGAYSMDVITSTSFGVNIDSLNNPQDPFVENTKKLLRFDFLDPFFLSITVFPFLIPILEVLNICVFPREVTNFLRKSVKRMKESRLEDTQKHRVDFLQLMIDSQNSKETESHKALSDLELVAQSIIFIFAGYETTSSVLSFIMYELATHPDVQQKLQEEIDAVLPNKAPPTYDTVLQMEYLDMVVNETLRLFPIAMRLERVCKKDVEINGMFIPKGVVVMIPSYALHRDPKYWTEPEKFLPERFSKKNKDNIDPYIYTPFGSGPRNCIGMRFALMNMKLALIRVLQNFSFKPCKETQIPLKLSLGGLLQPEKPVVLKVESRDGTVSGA
T1 sequence (P11712 whole entry): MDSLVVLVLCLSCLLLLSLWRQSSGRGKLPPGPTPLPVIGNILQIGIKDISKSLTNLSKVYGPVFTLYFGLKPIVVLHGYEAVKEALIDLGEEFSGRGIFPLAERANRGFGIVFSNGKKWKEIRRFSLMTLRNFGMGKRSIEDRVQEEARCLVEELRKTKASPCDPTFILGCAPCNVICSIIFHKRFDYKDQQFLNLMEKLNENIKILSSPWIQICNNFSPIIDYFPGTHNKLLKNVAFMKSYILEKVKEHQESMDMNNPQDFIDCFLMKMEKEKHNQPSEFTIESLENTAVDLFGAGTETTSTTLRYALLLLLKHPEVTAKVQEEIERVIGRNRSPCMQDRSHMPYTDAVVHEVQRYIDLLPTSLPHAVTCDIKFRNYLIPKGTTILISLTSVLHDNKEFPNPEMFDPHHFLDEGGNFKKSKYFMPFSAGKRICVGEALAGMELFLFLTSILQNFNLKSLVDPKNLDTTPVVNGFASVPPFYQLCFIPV
T4 sequence (P33261 whole entry): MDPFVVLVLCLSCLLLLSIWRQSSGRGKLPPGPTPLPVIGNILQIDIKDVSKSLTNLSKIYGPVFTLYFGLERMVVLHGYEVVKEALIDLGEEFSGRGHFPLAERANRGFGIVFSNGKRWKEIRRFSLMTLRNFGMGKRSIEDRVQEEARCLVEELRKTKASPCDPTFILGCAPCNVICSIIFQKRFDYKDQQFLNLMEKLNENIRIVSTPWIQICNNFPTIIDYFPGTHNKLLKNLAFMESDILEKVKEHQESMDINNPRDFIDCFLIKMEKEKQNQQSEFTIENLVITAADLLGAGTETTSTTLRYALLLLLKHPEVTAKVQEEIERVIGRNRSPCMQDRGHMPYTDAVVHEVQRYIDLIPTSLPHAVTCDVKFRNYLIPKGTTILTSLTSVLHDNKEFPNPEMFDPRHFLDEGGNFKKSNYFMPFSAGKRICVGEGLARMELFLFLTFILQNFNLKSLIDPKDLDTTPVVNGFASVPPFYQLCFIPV

CCOC(=O)C1=C[C@]2(CC)CCCN3CCc4c(n1c1ccccc41)[C@@H]32 [Vinpocetine, ethyl (3α,16α)-eburnamenine-14-carboxylate]
IC50 (μM) [1]: 68.96 [95% CI: 49.14–96.79] μM | IC50 [2]: 104.4 µM | IC50 [3]: 2837 µM | IC50 [4]: 285.1 µM | IC50 [5]: 107.1 µM
